The source of these data is ChEMBL document CHEMBL5291721, “A preclinical secondary pharmacology resource illuminates target-adverse drug reaction associations of marketed drugs” (Nat Commun, 2023).

Structures are written as SMILES.

The target of assay [1] is T1, Alpha-2C adrenergic receptor (Homo sapiens, UniProt P18825).
T1 sequence (P18825 whole entry): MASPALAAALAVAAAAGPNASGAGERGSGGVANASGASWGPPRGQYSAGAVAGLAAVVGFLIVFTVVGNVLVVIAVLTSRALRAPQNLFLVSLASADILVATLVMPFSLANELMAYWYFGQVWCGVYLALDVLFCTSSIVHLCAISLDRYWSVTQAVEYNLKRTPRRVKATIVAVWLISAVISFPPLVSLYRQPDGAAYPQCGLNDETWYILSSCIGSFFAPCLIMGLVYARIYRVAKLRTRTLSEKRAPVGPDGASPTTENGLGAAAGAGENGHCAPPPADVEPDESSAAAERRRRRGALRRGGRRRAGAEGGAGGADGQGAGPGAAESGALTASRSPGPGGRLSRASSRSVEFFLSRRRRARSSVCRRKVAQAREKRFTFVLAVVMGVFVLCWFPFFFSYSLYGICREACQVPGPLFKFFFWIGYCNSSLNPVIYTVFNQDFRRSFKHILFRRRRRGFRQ
Format: functional.

Assay [2] has as its target T2, 5-hydroxytryptamine receptor 1A (Homo sapiens, UniProt P08908).
T2 sequence (P08908 whole entry): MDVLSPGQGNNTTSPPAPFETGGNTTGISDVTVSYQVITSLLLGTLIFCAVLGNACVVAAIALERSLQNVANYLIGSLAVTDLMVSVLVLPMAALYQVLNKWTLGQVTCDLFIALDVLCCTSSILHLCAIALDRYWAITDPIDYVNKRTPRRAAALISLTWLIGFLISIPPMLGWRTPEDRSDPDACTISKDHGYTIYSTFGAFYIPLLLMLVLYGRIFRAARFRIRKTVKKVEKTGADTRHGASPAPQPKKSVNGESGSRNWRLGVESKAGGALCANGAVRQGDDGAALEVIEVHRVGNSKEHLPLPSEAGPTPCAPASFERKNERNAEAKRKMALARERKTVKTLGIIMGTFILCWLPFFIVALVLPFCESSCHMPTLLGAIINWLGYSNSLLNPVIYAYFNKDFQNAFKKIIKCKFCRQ
The format is functional, cell-based.

Assay [3] deals with 5-hydroxytryptamine receptor 2B (Homo sapiens, UniProt P41595). Format: functional, cell-based.
Chain of 5-hydroxytryptamine receptor 2B (P41595 whole entry): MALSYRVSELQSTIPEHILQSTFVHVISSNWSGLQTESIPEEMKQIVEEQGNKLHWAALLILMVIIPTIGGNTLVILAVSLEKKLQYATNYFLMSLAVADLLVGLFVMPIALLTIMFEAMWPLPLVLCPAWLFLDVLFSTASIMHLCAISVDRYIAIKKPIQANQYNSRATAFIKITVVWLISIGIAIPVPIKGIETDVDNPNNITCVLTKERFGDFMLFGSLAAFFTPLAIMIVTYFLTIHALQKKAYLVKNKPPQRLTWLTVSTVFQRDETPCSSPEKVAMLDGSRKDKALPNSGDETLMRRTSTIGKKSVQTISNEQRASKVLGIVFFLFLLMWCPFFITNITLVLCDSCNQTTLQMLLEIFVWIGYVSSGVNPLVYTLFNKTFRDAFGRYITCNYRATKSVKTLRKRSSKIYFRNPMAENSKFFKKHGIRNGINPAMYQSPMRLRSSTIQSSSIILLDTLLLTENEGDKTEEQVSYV
The target in assay [4] is Delta-type opioid receptor (Homo sapiens, UniProt P41143).
Chain of Delta-type opioid receptor (P41143 whole entry): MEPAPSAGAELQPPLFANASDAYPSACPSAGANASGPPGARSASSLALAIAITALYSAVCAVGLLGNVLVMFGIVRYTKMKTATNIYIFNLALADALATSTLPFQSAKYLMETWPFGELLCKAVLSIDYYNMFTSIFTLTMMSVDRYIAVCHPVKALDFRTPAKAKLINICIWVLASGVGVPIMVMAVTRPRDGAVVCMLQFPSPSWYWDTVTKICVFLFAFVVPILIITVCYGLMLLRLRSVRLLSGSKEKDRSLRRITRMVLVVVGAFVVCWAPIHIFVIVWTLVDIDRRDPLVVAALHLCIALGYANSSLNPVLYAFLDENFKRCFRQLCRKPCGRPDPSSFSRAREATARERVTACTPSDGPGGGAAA
Assay [5] concerns the target T3, Equilibrative nucleoside transporter 1 (Homo sapiens, UniProt Q99808).
T3 sequence (Q99808 whole entry): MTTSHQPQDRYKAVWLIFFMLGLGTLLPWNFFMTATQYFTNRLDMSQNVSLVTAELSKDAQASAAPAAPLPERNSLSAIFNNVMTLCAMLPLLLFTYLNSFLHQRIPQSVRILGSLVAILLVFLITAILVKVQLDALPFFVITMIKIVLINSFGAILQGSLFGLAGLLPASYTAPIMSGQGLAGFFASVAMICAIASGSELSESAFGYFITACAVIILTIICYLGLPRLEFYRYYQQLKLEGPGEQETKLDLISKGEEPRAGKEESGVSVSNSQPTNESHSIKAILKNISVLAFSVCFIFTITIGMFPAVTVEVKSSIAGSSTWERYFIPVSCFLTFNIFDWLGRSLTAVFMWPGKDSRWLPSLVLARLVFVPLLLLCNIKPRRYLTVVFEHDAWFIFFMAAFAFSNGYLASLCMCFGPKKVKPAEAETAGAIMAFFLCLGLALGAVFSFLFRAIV

Assay [6] addresses cGMP-inhibited 3',5'-cyclic phosphodiesterase 3A (Homo sapiens, UniProt Q14432). Format: functional.
Assay [7] addresses Kappa-type opioid receptor (Homo sapiens, UniProt P41145).
Another assay has as its target T4, Glucocorticoid receptor (Homo sapiens, UniProt P04150).
T4 sequence (P04150 whole entry): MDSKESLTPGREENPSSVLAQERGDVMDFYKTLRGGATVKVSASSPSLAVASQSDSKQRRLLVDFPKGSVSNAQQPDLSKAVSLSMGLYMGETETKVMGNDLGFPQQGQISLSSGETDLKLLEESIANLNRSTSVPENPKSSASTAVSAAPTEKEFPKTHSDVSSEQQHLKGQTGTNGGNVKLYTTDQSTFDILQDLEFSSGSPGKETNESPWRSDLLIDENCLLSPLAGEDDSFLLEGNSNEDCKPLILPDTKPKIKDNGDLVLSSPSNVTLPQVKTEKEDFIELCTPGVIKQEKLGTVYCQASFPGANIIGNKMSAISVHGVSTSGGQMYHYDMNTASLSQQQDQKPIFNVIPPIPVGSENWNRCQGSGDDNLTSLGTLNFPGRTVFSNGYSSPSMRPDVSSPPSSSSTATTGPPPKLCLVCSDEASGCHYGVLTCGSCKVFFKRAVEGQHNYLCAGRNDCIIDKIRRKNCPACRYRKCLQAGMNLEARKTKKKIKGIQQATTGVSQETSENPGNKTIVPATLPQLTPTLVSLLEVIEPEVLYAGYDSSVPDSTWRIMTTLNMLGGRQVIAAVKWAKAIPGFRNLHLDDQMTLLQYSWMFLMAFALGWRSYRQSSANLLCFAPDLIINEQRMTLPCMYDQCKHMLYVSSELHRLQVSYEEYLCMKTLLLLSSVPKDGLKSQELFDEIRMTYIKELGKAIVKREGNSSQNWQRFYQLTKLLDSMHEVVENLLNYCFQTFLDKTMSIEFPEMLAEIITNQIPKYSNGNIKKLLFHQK
Also: assay procedure not described here.

Chain of cGMP-inhibited 3',5'-cyclic phosphodiesterase 3A (Q14432 whole entry): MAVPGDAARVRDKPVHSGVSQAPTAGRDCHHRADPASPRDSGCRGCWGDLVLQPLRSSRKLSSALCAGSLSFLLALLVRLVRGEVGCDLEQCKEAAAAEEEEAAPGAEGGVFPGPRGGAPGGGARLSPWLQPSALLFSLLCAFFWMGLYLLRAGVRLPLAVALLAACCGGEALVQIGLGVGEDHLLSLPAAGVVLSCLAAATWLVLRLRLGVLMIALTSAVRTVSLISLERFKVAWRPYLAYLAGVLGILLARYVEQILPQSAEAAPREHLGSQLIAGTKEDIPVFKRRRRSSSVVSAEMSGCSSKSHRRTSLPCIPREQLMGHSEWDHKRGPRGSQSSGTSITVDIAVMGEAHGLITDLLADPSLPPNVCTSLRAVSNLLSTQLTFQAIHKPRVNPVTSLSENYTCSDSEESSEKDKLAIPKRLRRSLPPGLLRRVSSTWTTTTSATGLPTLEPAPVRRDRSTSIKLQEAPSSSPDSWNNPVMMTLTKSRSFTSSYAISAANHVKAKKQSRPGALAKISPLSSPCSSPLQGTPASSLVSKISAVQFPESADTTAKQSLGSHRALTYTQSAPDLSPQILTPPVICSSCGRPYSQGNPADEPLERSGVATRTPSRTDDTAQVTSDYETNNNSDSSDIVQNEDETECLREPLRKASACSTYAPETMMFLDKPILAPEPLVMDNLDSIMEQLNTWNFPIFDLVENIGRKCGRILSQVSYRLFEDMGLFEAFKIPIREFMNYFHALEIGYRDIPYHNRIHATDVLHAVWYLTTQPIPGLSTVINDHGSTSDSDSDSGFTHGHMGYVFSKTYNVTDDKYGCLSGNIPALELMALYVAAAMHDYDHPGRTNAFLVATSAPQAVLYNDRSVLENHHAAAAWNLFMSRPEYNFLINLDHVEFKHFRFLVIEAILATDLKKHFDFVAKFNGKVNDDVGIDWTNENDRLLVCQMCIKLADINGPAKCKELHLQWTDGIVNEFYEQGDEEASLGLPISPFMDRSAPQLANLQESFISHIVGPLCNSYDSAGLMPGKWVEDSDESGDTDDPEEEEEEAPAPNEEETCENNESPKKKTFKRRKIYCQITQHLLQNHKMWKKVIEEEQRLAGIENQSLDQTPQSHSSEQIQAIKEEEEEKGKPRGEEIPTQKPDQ
Chain of Kappa-type opioid receptor (P41145 whole entry): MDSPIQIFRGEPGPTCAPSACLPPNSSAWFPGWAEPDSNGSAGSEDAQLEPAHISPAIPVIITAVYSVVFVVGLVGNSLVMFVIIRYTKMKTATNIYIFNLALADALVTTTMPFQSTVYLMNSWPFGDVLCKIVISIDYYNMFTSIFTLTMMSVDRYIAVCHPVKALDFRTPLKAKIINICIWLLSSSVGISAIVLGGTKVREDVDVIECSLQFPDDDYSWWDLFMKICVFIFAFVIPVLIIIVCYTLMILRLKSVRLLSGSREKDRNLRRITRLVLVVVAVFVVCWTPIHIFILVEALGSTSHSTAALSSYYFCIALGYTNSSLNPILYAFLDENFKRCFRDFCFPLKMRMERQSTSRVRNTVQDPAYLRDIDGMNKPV

With `CC(=N)N1CC[C@H](SC2=C(C(=O)O)N3C(=O)[C@H]([C@@H](C)O)[C@H]3C2)C1`, the half-maximal activity concentration (AC50) (usually the concentration at which the activity in the assay is half-maximal) in assay [1] is above 300 µM; in assay [2], above 300 µM; in assay [3] it was above 300 µM; in assay [4], 290 µM; in assay [5] it was 60 µM; in assay [6] it was above 300 µM.
For `CC(/C=C1\SC(=S)N(CC(=O)O)C1=O)=C\c1ccccc1`, the concentration at half-maximal activity (AC50) in assay [1] is 8.2 µM; in assay [2], 21 µM; in assay [3] it was above 30 µM; in assay [4], 9 µM; in assay [7], 28 µM; in assay [5] it was 15 µM. The AC50 in assay [6] is above 30 µM.
For the compound `CC1(C)S[C@@H]2[C@H](NC(=O)[C@H](N)c3ccc(O)cc3)C(=O)N2[C@H]1C(=O)O` [AMOXICILLIN], the AC50 in assay [1] was above 30 µM; in assay [2], above 10 µM; in assay [3], above 30 µM; in assay [4], above 30 µM; in assay [7] it was above 30 µM; in assay [5], above 30 µM. In assay [6], the concentration at half-maximal activity (AC50) is above 30 µM.
As for `O=C1CN2Cc3c(ccc(Cl)c3Cl)N=C2N1` [ANAGRELIDE], the AC50 is above 10 µM in assay [1]; above 10 µM in assay [3]; above 30 µM at Glucocorticoid receptor; above 30 µM in assay [4]; above 10 µM in assay [7]; above 30 µM in assay [5].
Turning to `CNCC[C@@H](Oc1ccccc1C)c1ccccc1` [ATOMOXETINE], the AC50 in assay [1] was above 30 µM; in assay [3] it was 25 µM; at Glucocorticoid receptor it was above 30 µM; in assay [4], above 30 µM; in assay [7] it was 1.8 µM; in assay [6], above 30 µM.
As for `C=C(C)[C@@H]1CCC(C)=C[C@H]1c1c(O)cc(CCCCC)cc1O` [CANNABIDIOL], the AC50 in assay [1] is above 30 µM; in assay [2], above 10 µM; in assay [3] it was 2.28 µM; in assay [4], above 30 µM; in assay [5], above 30 µM; in assay [6], 25 µM.
For `CN1C[C@H](C(=O)N[C@]2(C)O[C@@]3(O)[C@@H]4CCCN4C(=O)[C@H](Cc4ccccc4)N3C2=O)C[C@@H]2c3cccc4[nH]cc(c34)C[C@H]21` [DIHYDROERGOTAMINE], the AC50 was above 30 µM on Glucocorticoid receptor; above 30 µM in assay [4]; above 10 µM in assay [7]; above 30 µM in assay [5]; above 30 µM in assay [6].
In the case of `CNCC[C@H](Oc1cccc2ccccc12)c1cccs1` [DULOXETINE], the half-maximal activity concentration (AC50) is 1.4 µM in assay [1]; 12 µM in assay [3]; above 30 µM on Glucocorticoid receptor; above 30 µM in assay [4]; above 30 µM in assay [5]; above 30 µM in assay [6].
Turning to `C#Cc1cccc(Nc2ncnc3cc(OCCOC)c(OCCOC)cc23)c1` [ERLOTINIB], the AC50 in assay [1] is above 30 µM; in assay [2], above 30 µM; in assay [3], above 30 µM; in assay [4], above 30 µM; in assay [5], 29 µM; in assay [6], above 30 µM.
As to `CC1(C)O[C@@H]2C[C@H]3[C@@H]4C[C@H](F)C5=CC(=O)C=C[C@]5(C)[C@H]4[C@@H](O)C[C@]3(C)[C@]2(C(=O)CO)O1` [FLUNISOLIDE], the half-maximal activity concentration (AC50) in assay [1] is above 30 µM; in assay [2] it was 0.56 µM; in assay [3], above 30 µM; in assay [4], above 30 µM; in assay [5] it was above 30 µM; in assay [6] it was above 30 µM.
In the case of `C[C@H]1Oc2cc(cnc2N)-c2c(nn(C)c2C#N)CN(C)C(=O)c2ccc(F)cc21` [LORLATINIB], the AC50 in assay [1] is above 30 µM; in assay [2] it was 6.2 µM; in assay [3] it was 14 µM; in assay [4], above 30 µM; in assay [5], above 30 µM; in assay [6], above 30 µM.
For `CC[C@@H](CO)NC(=O)[C@@H]1C=C2c3cccc4[nH]cc(c34)C[C@H]2N(C)C1` [METHYLERGONOVINE], the AC50 is 1.7 µM in assay [1]; above 30 µM at Glucocorticoid receptor; above 30 µM in assay [4]; above 30 µM in assay [7]; above 30 µM in assay [6].
Turning to `CC(=O)Oc1ccccc1C(=O)Nc1ncc([N+](=O)[O-])s1` [NITAZOXANIDE], the AC50 in assay [3] was 17 µM; at Glucocorticoid receptor, above 30 µM; in assay [4], 5 µM; in assay [7], above 30 µM; in assay [5] it was 1.9 µM; in assay [6], above 30 µM.
Consider `COc1ccc(Cc2nccc3cc(OC)c(OC)cc23)cc1OC` [PAPAVERINE], for which the half-maximal activity concentration (AC50) in assay [1] was above 30 µM; in assay [3] it was above 30 µM; in assay [7], above 30 µM; in assay [5] it was 10 µM.
Consider `CCOc1cc(CC(=O)N[C@@H](CC(C)C)c2ccccc2N2CCCCC2)ccc1C(=O)O` [REPAGLINIDE], for which the concentration at half-maximal activity (AC50) in assay [1], in assay [2], in assay [3], in assay [4], in assay [5] and in assay [6] was above 30 µM throughout.
With `NC(=O)c1ncn([C@@H]2O[C@H](CO)[C@@H](O)[C@H]2O)n1` [RIBAVIRIN], the half-maximal activity concentration (AC50) is above 10 µM in assay [1]; above 10 µM in assay [3]; above 10 µM on Glucocorticoid receptor; above 30 µM in assay [4]; above 10 µM in assay [7]; above 30 µM in assay [5]. The concentration at half-maximal activity (AC50) in assay [6] was above 30 µM.
For `O=C(Nc1c(Cl)cncc1Cl)c1ccc(OC(F)F)c(OCC2CC2)c1` [ROFLUMILAST], the AC50 (in assay [1]; in assay [3]; on Glucocorticoid receptor; in assay [7]; in assay [6]) was above 30 µM in each case.
For `CCCN(CCC)CCc1cccc2c1CC(=O)N2` [ROPINIROLE], the AC50 (in assay [1]; in assay [2]; at Glucocorticoid receptor; in assay [4]; in assay [5]; in assay [6]) was above 30 µM in each case.
For the compound `CCCN(CCc1cccs1)[C@H]1CCc2c(O)cccc2C1` [ROTIGOTINE], the concentration at half-maximal activity (AC50) was 0.4 µM in assay [1]; 0.67 µM in assay [2]; 25 µM in assay [4]; 29 µM in assay [5]; above 30 µM in assay [6].
`CC[C@H]1OC(=O)[C@H](C)[C@@H](O[C@H]2C[C@@](C)(OC)[C@@H](O)[C@H](C)O2)[C@H](C)[C@@H](O[C@@H]2O[C@H](C)C[C@H](N(C)C)[C@H]2O)[C@](C)(O)C[C@@H](C)/C(=N\OCOCCOC)[C@H](C)[C@@H](O)[C@]1(C)O` [ROXITHROMYCIN]: the concentration at half-maximal activity (AC50) in assay [1], in assay [2], in assay [3], in assay [4], in assay [5] and in assay [6] was above 30 µM in each case.
